Experiment: Isomerization of cis,cis-muconate to cis,trans-muconate in crude fermentation broth, monitored by 1H NMR and HPLC
Assay type: physicochemical
Details: for time until isomerization cis,cis to cis,trans is essentially complete: pH 4, 60° C.
Method: cis,cis-muconate produced from a renewable carbon source through biocatalytic conversion (e.g., according to the method of Examples 7 and 7A) was provided, and the fermentation culture including the cis,cis-muconate was warmed to 60° C. The warmed fermentation culture was adjusted to pH 4 by adding 2 N sulfuric acid over 0.5 h. The acidified culture was allowed to react for 3.5 h.
The reaction was monitored by ^1H NMR and HPLC equipped with the Prevail Organic Acid Column (150 mm×4.6 mm), to determine the endpoint of the reaction. […] In general, such isomerization reactions can be monitored to determine appropriate reaction parameters (e.g., time, temperature, pH, and the like).

O=C(O)/C=C\C=C/C(=O)O [cis,cis-muconate, cis,cis-muconic acid]
time until isomerization cis,cis to cis,trans is essentially complete (HPLC traces and time course): about 1.25 hours
time until isomerization cis,cis to cis,trans is essentially complete (crude fermentation broth, 1H NMR): about 1.25 hours
isomerization from cis,cis to cis,trans-muconic acid (pH 7, HPLC traces and time course): essentially no isomerization
isomerization from cis,cis to cis,trans muconic acid (pH 7, crude fermentation broth, 0 to 3.25 hours, 1H NMR): essentially no isomerization

— patent publication US8809583B2, “Methods for producing isomers of muconic acid and muconate salts” (Amyris, Inc., priority 2010, dated 2014)
